Experimental data taken from patent US20250228239A1, “MOLECULES HAVING PESTICIDAL UTILITY, AND INTERMEDIATES, COMPOSITIONS, AND PROCESSES, RELATED THERETO” (priority 2024, published 2025).

Legend:
Assay type in all cases: in vivo
[1] = test system: Cabbage Looper (Trichoplusia ni, TRIPNI); assay: Bioassays on Cabbage Looper (CL), 128-well diet tray assay; conditions: Trichoplusia ni; Table ABC: Biological Results; species CL; read-out: CL
Summary of the method: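 Test molecule was dissolved in 90:10 acetone-water, applied to artificial diet at 50 μg/cm^2 and allowed to dry. Second-instar larvae were then added, one to five per well, and trays held at 25° C for five to seven days before mortality was scored and averaged.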

[2] = test system: Beet Armyworm (Spodoptera exigua, LAPHEG); assay: Bioassays on Beet Armyworm (BAW), 128-well diet tray assay; conditions: Spodoptera exigua; Table ABC: Biological Results; species BAW; read-out: BAW
Summary of the method: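 Mortality of second-instar larvae (1–5/well) on artificial diet treated with 50 μg/cm^2 compound, read after 5–7 days at 25° C.; values are means of eight wells.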

[3] = test system: Yellow Fever Mosquito (Aedes aegypti, AEDSAE); conditions: Table ABC: Biological Results; species YFM
Protocol: Certain molecules disclosed in this document were tested against YFM using procedures described in the following paragraph. In the reporting of the results, the “GPA & YFM Rating Table” was used (See Table Section).
Master plates containing 400 μg of a molecule dissolved in 100 μL of dimethyl sulfoxide (DMSO) (equivalent to a 4000 ppm solution) are used. A master plate of assembled molecules contains 15 μL per well. To this plate, 135 μL of a 90:10 water/acetone mixture is added to each well. A robot (Biomek® NXP Laboratory Automation Workstation) is programmed to dispense 15 μL aspirations from the master plate into an empty 96-well shallow plate (“daughter” plate). There are 6 reps (“daughter” plates) created per master. The created “daughter” plates are then immediately infested with YFM larvae.
The day before plates are to be treated, mosquito eggs are placed in Millipore water containing liver powder to begin hatching (4 g into 400 mL). After the “daughter” plates are created using the robot, they are infested with 220 μL of the liver powder/larval mosquito mixture (about 1 day-old larvae). After plates are infested with mosquito larvae, a non-evaporative lid is used to cover the plate to reduce drying. Plates are held at room temperature for 3 days prior to grading. After 3 days, each well is observed and scored based on mortality. The results are indicated in the table entitled “Table ABC: Biological Results” (See Table Section).

**Q.** How did the pest or weed control at 50 µg/cm2 [1] turn out when `O=C(Nc1ccc(F)cc1F)c1cc(NC(=O)[C@H]2[C@H](c3cc(C(F)(F)F)ccc3Cl)C2(Cl)Cl)ccc1Cl` (relative stereo) [F1004, trans-2-Chloro-5-(2,2-dichloro-3-(2-chloro-5-(trifluoromethyl)phenyl)cyclopropane-1-carboxamido)-N-(2,4-difluorophenyl)benzamide] was run?
**A.** 50 to 100%

**Q.** And the pest or weed control at 50 µg/cm2 [2]?
**A.** 50 to 100%

**Q.** And the YFM [3]?
**A.** A (80–100)

**Q.** What does the source list for `O=C(Nc1ccc(F)cc1)c1cc(NC(=O)[C@H]2[C@H](c3cc(Cl)c(Cl)c(Br)c3)C2(Cl)Cl)ccc1Cl` (relative stereo) [F1005, trans-5-(3-(3-bromo-4,5-dichlorophenyl)-2,2-dichlorocyclopropane-1-carboxamido)-2-chloro-N-(4-fluorophenyl)benzamide]?
**A.** pest or weed control at 50 µg/cm2 [1]: 50 to 100%; pest or weed control at 50 µg/cm2 [2]: 50 to 100%; YFM [3]: A (80–100)

**Q.** `O=C(Nc1ccc(F)cc1F)c1cc(NC(=O)[C@H]2[C@H](c3cc(Cl)c(Br)c(Cl)c3)C2(Cl)Cl)ccc1Cl` (relative stereo) [F1006, trans-5-(3-(4-Bromo-3,5-dichlorophenyl)-2,2-dichlorocyclopropane-1-carboxamido)-2-chloro-N-(2,4-difluorophenyl)benzamide] was tested. Which pest or weed control at 50 µg/cm2 [1] did it give?
**A.** 50 to 100%

**Q.** What about the pest or weed control at 50 µg/cm2 [2] of the same molecule?
**A.** 50 to 100%

**Q.** What about the YFM [3] of the same molecule?
**A.** A (80–100)

**Q.** Which results are given for `O=C(Nc1ccc(F)cc1F)c1cc(NC(=O)[C@H]2[C@H](c3c(F)c(F)c(F)c(F)c3F)C2(Cl)Cl)ccc1Cl` (relative stereo) [F1009, trans-2-Chloro-5-(2,2-dichloro-3-(perfluorophenyl)cyclopropane-1-carboxamido)-N-(2,4-difluorophenyl)benzamide]?
**A.** pest or weed control at 50 µg/cm2 [1]: 50 to 100%; pest or weed control at 50 µg/cm2 [2]: 50 to 100%; YFM [3]: A (80–100)

**Q.** How did the pest or weed control at 50 µg/cm2 [1] turn out when `Cc1cc(NCc2ccc(Cl)cc2)ccc1NC(=O)c1cc(NC(=O)[C@H]2[C@H](c3cc(Cl)cc(Cl)c3)C2(Cl)Cl)ccc1Cl` (relative stereo) [F1010, trans-2-chloro-N-(4-((4-chlorobenzyl)amino)-2-methylphenyl)-5-(2,2-dichloro-3-(3,5-dichlorophenyl)cyclopropane-1-carboxamido)benzamide] was run?
**A.** 50 to 100%

**Q.** What about the pest or weed control at 50 µg/cm2 [2] of the same molecule?
**A.** 50 to 100%

**Q.** And the YFM [3]?
**A.** A (80–100)

**Q.** For `O=C(Nc1ccc(F)cc1F)c1cc(NC(=O)[C@H]2[C@H](c3cc(F)c(F)c(Br)c3)C2(Cl)Cl)ccc1Cl` (relative stereo) [F1011, trans-5-(3-(3-Bromo-4,5-difluorophenyl)-2,2-dichlorocyclopropane-1-carboxamido)-2-chloro-N-(2,4-difluorophenyl)benzamide], which pest or weed control at 50 µg/cm2 [1] is on record?
**A.** 50 to 100%

**Q.** And the pest or weed control at 50 µg/cm2 [2]?
**A.** 50 to 100%

**Q.** And the YFM [3]?
**A.** A (80–100)

**Q.** For `O=C(Nc1ccc(F)cc1F)c1cc(NC(=O)[C@H]2[C@@H](c3cc(F)c(F)c(Br)c3)C2(Cl)Cl)ccc1Cl` (relative stereo) [F1012, cis-5-(3-(3-Bromo-4,5-difluorophenyl)-2,2-dichlorocyclopropane-1-carboxamido)-2-chloro-N-(2,4-difluorophenyl)benzamide], which pest or weed control at 50 µg/cm2 [1] is on record?
**A.** 50 to 100%

**Q.** And the pest or weed control at 50 µg/cm2 [2]?
**A.** 50 to 100%

**Q.** What about the YFM [3] of the same molecule?
**A.** A (80–100)

**Q.** With `CC(C)(C)OC(=O)Nc1ccc(F)c(NC(=O)c2cc(NC(=O)[C@H]3[C@H](c4cc(Cl)cc(Cl)c4)C3(Cl)Cl)ccc2Cl)c1F` (relative stereo) [F1023, trans-tert-Butyl-(3-(2-chloro-5-(2,2-dichloro-3-(3,5-dichlorophenyl)cyclopropane-1-carboxamido)benzamido)-2,4-difluorophenyl)carbamate] as the molecule, how does the pest or weed control at 50 µg/cm2 [1] read?
**A.** 50 to 100%

**Q.** What about the pest or weed control at 50 µg/cm2 [2] of the same molecule?
**A.** 50 to 100%

**Q.** And the YFM [3]?
**A.** A (80–100)

**Q.** What does the source list for `O=C(Nc1ccc(F)cc1F)c1cc(NC(=O)[C@H]2[C@H](c3cc(F)c(Cl)c(Cl)c3)C2(Cl)Cl)ccc1Cl` (relative stereo) [F1024, trans-2-Chloro-5-(2,2-dichloro-3-(3,4-dichloro-5-fluorophenyl)cyclopropane-1-carboxamido)-N-(2,4-difluorophenyl)benzamide]?
**A.** pest or weed control at 50 µg/cm2 [1]: 50 to 100%; pest or weed control at 50 µg/cm2 [2]: 50 to 100%; YFM [3]: A (80–100)

**Q.** How did the pest or weed control at 50 µg/cm2 [1] turn out when `O=C(Nc1ccc(F)cc1F)c1cc(NC(=O)[C@H]2[C@@H](c3cc(F)c(Cl)c(Cl)c3)C2(Cl)Cl)ccc1Cl` (relative stereo) [F1025, cis-2-Chloro-5-(2,2-dichloro-3-(3,4-dichloro-5-fluorophenyl)cyclopropane-1-carboxamido)-N-(2,4-difluorophenyl)benzamide] was run?
**A.** 50 to 100%

**Q.** And the pest or weed control at 50 µg/cm2 [2]?
**A.** 50 to 100%

**Q.** What about the YFM [3] of the same molecule?
**A.** A (80–100)

**Q.** For `Nc1ccc(F)c(NC(=O)c2cc(NC(=O)[C@H]3[C@H](c4cc(Cl)cc(Cl)c4)C3(Cl)Cl)ccc2Cl)c1F` (relative stereo) [F1026, trans-N-(3-Amino-2,6-difluorophenyl)-2-chloro-5-(2,2-dichloro-3-(3,5-dichlorophenyl)cyclopropane-1-carboxamido)benzamide], which pest or weed control at 50 µg/cm2 [1] is on record?
**A.** 50 to 100%

**Q.** What about the pest or weed control at 50 µg/cm2 [2] of the same molecule?
**A.** 50 to 100%

**Q.** And the YFM [3]?
**A.** A (80–100)

**Q.** With `O=C(Nc1ccc(F)cc1F)c1cc(NC(=O)[C@H]2[C@H](c3cc(Br)cc(S(F)(F)(F)(F)F)c3)C2(Cl)Cl)ccc1Cl` (relative stereo) [F1031, trans-5-(3-(3-Bromo-5-(pentafluoro-λ^6-sulfanyl)phenyl)-2,2-dichlorocyclopropane-1-carboxamido)-2-chloro-N-(2,4-difluorophenyl)benzamide] as the molecule, how does the pest or weed control at 50 µg/cm2 [1] read?
**A.** 50 to 100%

**Q.** What about the pest or weed control at 50 µg/cm2 [2] of the same molecule?
**A.** 50 to 100%

**Q.** What about the YFM [3] of the same molecule?
**A.** A (80–100)

**Q.** What does the source list for `O=C(Nc1ccc(F)cc1F)c1cc(NC(=O)[C@H]2[C@@H](c3ccc(F)c(Cl)c3F)C2(Cl)Cl)ccc1Cl` (relative stereo) [F1033, cis-2-Chloro-5-(2,2-dichloro-3-(3-chloro-2,4-difluorophenyl)cyclopropane-1-carboxamido)-N-(2,4-difluorophenyl)benzamide]?
**A.** pest or weed control at 50 µg/cm2 [1]: 50 to 100%; pest or weed control at 50 µg/cm2 [2]: 50 to 100%; YFM [3]: A (80–100)

**Q.** `O=C(Nc1ccc(F)cc1F)c1cc(NC(=O)[C@H]2[C@H](c3ccc(F)c(Cl)c3F)C2(Cl)Cl)ccc1Cl` (relative stereo) [F1034, trans-2-Chloro-5-(2,2-dichloro-3-(3-chloro-2,4-difluorophenyl)cyclopropane-1-carboxamido)-N-(2,4-difluorophenyl)benzamide] was tested. Which pest or weed control at 50 µg/cm2 [1] did it give?
**A.** 50 to 100%

**Q.** And the pest or weed control at 50 µg/cm2 [2]?
**A.** 50 to 100%

**Q.** And the YFM [3]?
**A.** A (80–100)

**Q.** For `COc1ccc(CNc2ccc(NC(=O)c3cc(NC(=O)[C@H]4[C@H](c5cc(Cl)cc(Cl)c5)C4(Cl)Cl)ccc3Cl)c(C)c2)cc1` (relative stereo) [F1035, trans-2-Chloro-5-(2,2-dichloro-3-(3,5-dichlorophenyl)cyclopropane-1-carboxamido)-N-(4-((4-methoxybenzyl)amino)-2-methylphenyl)benzamide], which pest or weed control at 50 µg/cm2 [1] is on record?
**A.** 50 to 100%

**Q.** What about the pest or weed control at 50 µg/cm2 [2] of the same molecule?
**A.** 50 to 100%

**Q.** And the YFM [3]?
**A.** A (80–100)

**Q.** For `Nc1c(F)ccc(NC(=O)c2cc(NC(=O)[C@H]3[C@H](c4ccc(Cl)c(C(F)F)c4)C3(Cl)Cl)ccc2Cl)c1F` (relative stereo) [F1037, trans-N-(3-Amino-2,4-difluorophenyl)-2-chloro-5-(2,2-dichloro-3-(4-chloro-3-(difluoromethyl)phenyl)cyclopropane-1-carboxamido)benzamide], which pest or weed control at 50 µg/cm2 [1] is on record?
**A.** 50 to 100%

**Q.** What about the pest or weed control at 50 µg/cm2 [2] of the same molecule?
**A.** 50 to 100%

**Q.** And the YFM [3]?
**A.** A (80–100)

**Q.** With `Nc1c(F)ccc(NC(=O)c2cc(NC(=O)[C@H]3[C@H](c4cc(Cl)cc(C(F)F)c4)C3(Cl)Cl)ccc2Cl)c1F` (relative stereo) [F1038, trans-N-(3-Amino-2,4-difluorophenyl)-2-chloro-5-(2,2-dichloro-3-(3-chloro-5-(difluoromethyl)phenyl)cyclopropane-1-carboxamido)benzamide] as the molecule, how does the pest or weed control at 50 µg/cm2 [1] read?
**A.** 50 to 100%

**Q.** What about the pest or weed control at 50 µg/cm2 [2] of the same molecule?
**A.** 50 to 100%

**Q.** What about the YFM [3] of the same molecule?
**A.** A (80–100)

**Q.** `CN(C(=O)c1cc(NC(=O)[C@H]2[C@H](c3cc(Cl)cc(Cl)c3)C2(Cl)Cl)ccc1C#N)c1ccc(F)cc1F` (relative stereo) [F1039, trans-2-Cyano-5-(2,2-dichloro-3-(3,5-dichlorophenyl)cyclopropane-1-carboxamido)-N-(2,4-difluorophenyl)-N-methylbenzamide] was tested. Which pest or weed control at 50 µg/cm2 [1] did it give?
**A.** 50 to 100%

**Q.** And the pest or weed control at 50 µg/cm2 [2]?
**A.** 50 to 100%

**Q.** What about the YFM [3] of the same molecule?
**A.** A (80–100)

**Q.** `Cc1cc(NCc2ccc(C#N)cc2)ccc1NC(=O)c1cc(NC(=O)[C@H]2[C@H](c3cc(Cl)cc(Cl)c3)C2(Cl)Cl)ccc1Cl` (relative stereo) [F1040, trans-2-Chloro-N-(4-((4-cyanobenzyl)amino)-2-methylphenyl)-5-(2,2-dichloro-3-(3,5-dichlorophenyl)cyclopropane-1-carboxamido)benzamide] was tested. Which pest or weed control at 50 µg/cm2 [1] did it give?
**A.** 50 to 100%

**Q.** And the pest or weed control at 50 µg/cm2 [2]?
**A.** 50 to 100%

**Q.** And the YFM [3]?
**A.** A (80–100)
